Results from patent US11702422B2, “Imidazopyridazines as modulators of IL-17” (Janssen Pharmaceutica NV, priority 2020, dated 2023).

What was measured:
[1] = system: IL-17A-induced G-CSF production in human normal keratinocyte (NHK); assay: NHK Assay: IL-17A-induced G-CSF production in human normal keratinocytes; type: cell-based; conditions: 24 h, adult normal human keratinocytes, IL-17A 5 ng/mL, simple average if tested more than once
Procedure, shortened: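 Inhibition of IL-17A-driven G-CSF release is measured in adult keratinocytes stimulated for 24 h at 37° C with 5 ng/mL human IL-17A that had been pre-incubated with compound for 1 h. IC50 comes from HTRF G-CSF levels; cell viability is checked in parallel by luminescent ATP assay.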

[2] = biological target: IL-17A(FLAG-Tagged): IL-17RA(His-Tagged) (Homo sapiens, UniProt Q16552, K93Q); assay: IL-17A(FLAG-Tagged): IL-17RA(His-Tagged) Binding Disruption Eu-HTRF Assay; conditions: IL-17A/IL-17RA binding disruption, simple average if tested more than once
Chain of UniProt Q16552 (Q16552 with tags, fused parts or gaps K93Q): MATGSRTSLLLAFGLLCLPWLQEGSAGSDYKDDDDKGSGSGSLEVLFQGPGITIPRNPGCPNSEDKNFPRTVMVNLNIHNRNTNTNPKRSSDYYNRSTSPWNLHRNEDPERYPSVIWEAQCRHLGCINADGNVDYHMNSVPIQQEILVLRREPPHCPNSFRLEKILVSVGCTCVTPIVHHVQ
Procedure, shortened: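 IC50 comes from a one-site competition fit of the HTRF 665/620 nm ratio. Compound dilutions (2-fold, 22 points) were held 1 h rt with FLAG-tagged IL-17A dimer, then His-tagged IL-17RA plus Eu-cryptate anti-FLAG and D2 anti-His antibodies were added for 2 h rt.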

| SMILES | IC50 [2] | IC50 ([1]; Homo sapiens, Keratinocyte) | IC50 [1] |
| --- | --- | --- | --- |
| [2H]C([2H])([2H])C([2H])([2H])n1nccc1C(=O)N[C@H](c1cn2ncc([C@H](CC)NC(=O)CC3CC(F)(F)C3)cc2n1)C1CCC(F)(F)CC1 (relative stereo) [Example 508, N—((S)-(7-((S*)-1-(2-(3,3-Difluorocyclobutyl)acetamido)propyl)imidazo[1,2-b]pyridazin-2-yl)(4,4-difluorocyclohexyl)methy)-1-(ethyl-d5)-1H-pyrazole-5-carboxamide] | 1200 nM | 10000 nM |  |
| O=C(CCC(F)(F)F)N[C@@H](c1cnn2cc([C@@H](NC(=O)c3ncn(CCC(F)(F)F)n3)C3CCC(F)(F)CC3)nc2c1)C1CC1 [Example 33, N—((S)-(7-((R)-Cyclopropyl(4,4,4-trifluorobutanamido)methyl)imidazo[1,2-b]pyridazin-2-yl)(4,4-difluorocyclohexyl)methyl)-1-(3,3,3-trifluoropropyl)-1H-1,2,4-triazole-3-carboxamide] | 4500 nM | > 20000 nM |  |
| Cc1ccnc(C(=O)N[C@H](c2cn3ncc([C@H](NC(=O)CCC(F)(F)F)C4CC4)cc3n2)C2CCC(F)(F)CC2)n1 [Example 212, N—((S)-(7-((R)-Cyclopropyl(4,4,4-trifluorobutanamido)methyl)imidazo[1,2-b]pyridazin-2-yl)(4,4-difluorocyclohexyl)methyl)-4-methylpyrimidine-2-carboxamide] | 13000 nM | > 20000 nM |  |
| O=C(CCC(F)(F)F)N[C@@H](c1cnn2cc([C@@H](NC(=O)[C@@H]3CC34CCC4)C3CCC(F)(F)CC3)nc2c1)C1CC1 (relative stereo) [Example 366, (R*)—N—((S)-(7-((R*)-Cyclopropyl(4,4,4-trifluorobutanamido)methyl)imidazo[1,2-b]pyridazin-2-yl)(4,4-difluorocyclohexyl)methyl)spiro[2.3]hexane-1-carboxamide] | 2400 nM | > 20000 nM |  |
| Cn1nnnc1C(=O)N[C@H](c1cn2ncc([C@H](NC(=O)CCC(F)(F)F)C3CC3)cc2n1)C1CCC(F)(F)CC1 [Example 468, N—((S)-(7-((R)-Cyclopropyl(4,4,4-trifluorobutanamido)methyl)imidazo[1,2-b]pyridazin-2-yl)(4,4-difluorocyclohexyl)methyl)-1-methyl-1H-tetrazole-5-carboxamide] | 750 nM | 1700 nM |  |
| O=C(CCC(F)(F)F)N[C@@H](c1cnn2cc([C@@H](NC(=O)[C@H]3C[C@@H]3F)C3CCC(F)(F)CC3)nc2c1)C1CC1 [Example 98, (1R,2S)—N—((S)-(7-((R)-Cyclopropyl(4,4,4-trifluorobutanamido)methyl)imidazo[1,2-b]pyridazin-2-yl)(4,4-difluorocyclohexyl)methyl)-2-fluorocyclopropane-1-carboxamide] | 770 nM | 2300 nM |  |
| CCc1noc(C)c1C(=O)N[C@H](c1cn2ncc([C@H](NC(=O)CCC(F)(F)F)C3CC3)cc2n1)C1CCC(F)(F)CC1 [Example 82, N—((S)-(7-((R)-Cyclopropyl(4,4,4-trifluorobutanamido)methyl)imidazo[1,2-b]pyridazin-2-yl)(4,4-difluorocyclohexyl)methyl)-3-ethyl-5-methylisoxazole-4-carboxamide] | 3000 nM | > 20000 nM |  |
| O=C(CCC(F)(F)F)NC(c1cnn2cc([C@@H](NC(=O)c3cnn(CCC(F)(F)F)n3)C3CCC(F)(F)CC3)nc2c1)C1CC1 (single isomer, unassigned) [Example 19, N—((S)-(7-((S*)-Cyclopropyl(4,4,4-trifluorobutanamido)methyl)imidazo[1,2-b]pyridazin-2-yl)(4,4-difluorocyclohexyl)methyl)-2-(3,3,3-trifluoropropyl)-2H-1,2,3-triazole-4-carboxamide] | 3900 nM |  | 3800 nM |
| N#Cc1ccnc(C(=O)N[C@H](c2cn3ncc([C@H](NC(=O)CCC(F)(F)F)C4CC4)cc3n2)C2CCC(F)(F)CC2)c1 [Example 461, 4-Cyano-N—((S)-(7-((R)-cyclopropyl(4,4,4-trifluorobutanamido)methyl)imidazo[1,2-b]pyridazin-2-yl)(4,4-difluorocyclohexyl)methyl)picolinamide] | 1600 nM | > 20000 nM |  |
| Cc1nonc1C(=O)N[C@H](c1cn2ncc([C@H](NC(=O)CC(C)CC(F)(F)F)C3CC3)cc2n1)C1CCC(F)(F)CC1 (single isomer, unassigned) [Example 350, N—((S)-(7-((R)-Cyclopropyl((R*)-5,5,5-trifluoro-3-methylpentanamido)methyl)imidazo[1,2-b]pyridazin-2-yl)(4,4-difluorocyclohexyl)methyl)-4-methyl-1,2,5-oxadiazole-3-carboxamide] | 270 nM | 660 nM |  |

Now those with a lower IC50 [2], led by results:

| IC50 [2] | SMILES | IC50 ([1]; Homo sapiens, Keratinocyte) | IC50 [1] |
| --- | --- | --- | --- |
| 150 nM | CC(C)n1nccc1C(=O)N[C@H](c1cn2ncc(C(NC(=O)CCC(F)(F)F)C3CCC3)cc2n1)C1CCC(F)(F)CC1 (single isomer, unassigned) [Example 490, N—((S)-(7-((R*)-Cyclobutyl(4,4,4-trifluorobutanamido)methyl)imidazo[1,2-b]pyridazin-2-yl)(4,4-difluorocyclohexyl)methyl)-1-isopropyl-1H-pyrazole-5-carboxamide] | 67 nM |  |
| 150 nM | [2H]C([2H])([2H])C([2H])([2H])n1nccc1C(=O)N[C@H](c1cn2ncc([C@H](NC(=O)C[C@H](C)C(F)(F)F)C3CCC3)cc2n1)C1CCC(F)(F)CC1 (relative stereo) [Example 500, N—((S)-(7-((R*)-Cyclobutyl((S*)-4,4,4-trifluoro-3-methylbutanamido)methyl)imidazo[1,2-b]pyridazin-2-yl)(4,4-difluorocyclohexyl)methyl)-1-(ethyl-d5)-1H-pyrazole-5-carboxamide] | 140 nM |  |
| 150 nM | CC(C)n1nccc1C(=O)N[C@H](c1cn2ncc([C@H](NC(=O)CCC3CC3(F)F)C3CC3)cc2n1)C1CCC(F)(F)CC1 (single isomer, unassigned) [Example 270, N—((S)-(7-((R)-Cyclopropyl(3-((R*)-2,2-difluorocyclopropyl)propanamido)methyl)imidazo[1,2-b]pyridazin-2-yl)(4,4-difluorocyclohexyl)methyl)-1-isopropyl-1H-pyrazole-5-carboxamide] | 38 nM |  |
| 31 nM | O=C(CC1(C(F)(F)F)CC1)N[C@@H](c1cnn2cc([C@@H](NC(=O)c3nonc3C3CC3)C3CCC(F)(F)CC3)nc2c1)C1CC1 [Example 297, 4-Cyclopropyl-N—((S)-(7-((R)-cyclopropyl(2-(1-(trifluoromethyl)cyclopropyl)acetamido)methyl)imidazo[1,2-b]pyridazin-2-yl)(4,4-difluorocyclohexyl)methyl)-1,2,5-oxadiazole-3-carboxamide] | 87 nM |  |
| 17 nM | CC(C)c1nonc1C(=O)N[C@H](c1cn2ncc([C@H](NC(=O)CCC(F)(F)F)C3CC3)cc2n1)C1CCC(F)(F)CC1 [Example 379, N—((S)-(7-((R)-Cyclopropyl(4,4,4-trifluorobutanamido)methyl)imidazo[1,2-b]pyridazin-2-yl)(4,4-difluorocyclohexyl)methyl)-4-isopropyl-1,2,5-oxadiazole-3-carboxamide] | 30 nM |  |
| 99 nM | N#CC1(C(NC(=O)CC2CC(F)(F)C2)c2cnn3cc([C@@H](NC(=O)c4nonc4OCC(F)F)C4CCC(F)(F)CC4)nc3c2)CC1 (single isomer, unassigned) [Example 425, N—((S)-(7-((S*)-(1-Cyanocyclopropyl)(2-(3,3-difluorocyclobutyl)acetamido)methyl)imidazo[1,2-b]pyridazin-2-yl)(4,4-difluorocyclohexyl)methyl)-4-(2,2-difluoroethoxy)-1,2,5-oxadiazole-3-carboxamide] |  | 20 nM |
| 73 nM | Cc1cnoc1C(=O)N[C@H](c1cn2ncc([C@H](NC(=O)CCC(F)(F)F)C3CC3)cc2n1)C1CCC(F)(F)CC1 [Example 160, N—((S)-(7-((R)-Cyclopropyl(4,4,4-trifluorobutanamido)methyl)imidazo[1,2-b]pyridazin-2-yl)(4,4-difluorocyclohexyl)methyl)-4-methylisoxazole-5-carboxamide] | 270 nM |  |
| 130 nM | O=C(CC1CC(F)(F)C1)N[C@@H](c1cnn2cc([C@@H](NC(=O)[C@H]3C[C@@H]3C(F)(F)F)C3CCC(F)(F)CC3)nc2c1)C1CC1 (relative stereo) [Example 143, (Trans-1S*,2S*)—N—((S)-(7-((R)-Cyclopropyl(2-(3,3-difluorocyclobutyl)acetamido)methyl)imidazo[1,2-b]pyridazin-2-yl)(4,4-difluorocyclohexyl)methyl)-2-(trifluoromethyl)cyclopropane-1-carboxamide] | 450 nM |  |
| 98 nM | Cc1nonc1C(=O)N[C@H](c1cn2ncc([C@H](NC(=O)CCC(F)F)C3CC3)cc2n1)C1CCC(F)(F)CC1 [Example 250, N—((S)-(7-((R)-Cyclopropyl(4,4-difluorobutanamido)methyl)imidazo[1,2-b]pyridazin-2-yl)(4,4-difluorocyclohexyl)methyl)-4-methyl-1,2,5-oxadiazole-3-carboxamide] | 390 nM |  |
| 120 nM | O=C(CCC(F)(F)F)N[C@@H](c1cnn2cc([C@@H](NC(=O)c3conc3OCC(F)F)C3CCC(F)(F)CC3)nc2c1)C1CC1 [Example 285, N—((S)-(7-((R)-Cyclopropyl(4,4,4-trifluorobutanamido)methyl)imidazo[1,2-b]pyridazin-2-yl)(4,4-difluorocyclohexyl)methyl)-3-(2,2-difluoroethoxy)isoxazole-4-carboxamide] | 340 nM |  |
